Test results reported in US5149779A, “Humoral hypercalcemic factor antagonists” (Merck & Co., Inc., priority 1990, dated 1992).

Target: T1, human osteosarcoma cell line, B10 (Homo sapiens, UniProt Q03431)
T1 construct: analyzed in a human osteosarcoma cell line, B10; endogenous in cells; host or cells: human osteosarcoma cell line B10
T1 sequence (Q03431 27-593): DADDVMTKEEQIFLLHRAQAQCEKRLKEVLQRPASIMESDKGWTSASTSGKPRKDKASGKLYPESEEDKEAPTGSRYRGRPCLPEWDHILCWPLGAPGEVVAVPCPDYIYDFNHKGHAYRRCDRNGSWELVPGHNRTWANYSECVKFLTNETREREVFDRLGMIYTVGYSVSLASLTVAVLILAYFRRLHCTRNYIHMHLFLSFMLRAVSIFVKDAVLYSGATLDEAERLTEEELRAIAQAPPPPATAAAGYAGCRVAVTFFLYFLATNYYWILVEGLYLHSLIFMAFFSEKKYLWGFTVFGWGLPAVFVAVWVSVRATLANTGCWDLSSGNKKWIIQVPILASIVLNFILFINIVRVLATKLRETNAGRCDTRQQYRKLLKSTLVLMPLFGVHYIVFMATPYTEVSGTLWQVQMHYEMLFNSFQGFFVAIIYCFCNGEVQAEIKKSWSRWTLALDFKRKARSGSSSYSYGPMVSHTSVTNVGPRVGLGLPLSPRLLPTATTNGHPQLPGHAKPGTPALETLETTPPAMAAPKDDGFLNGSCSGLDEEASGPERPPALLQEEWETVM
Assay: Human bone cell (B10) adenylate cyclase assay
Type: cell-based
Method: HCF analogues were analyzed in a human osteosarcoma cell line, B10, for the ability to inhibit cAMP stimulation by 1 nM [Nle^8,18,Tyr^34 ]bPTH(1-34)NH2 by the method described by R. J. Majeska et al., Endocrinol., 107: 1494 (1980).

| Structure (SMILES) | Ki [nM] |
| --- | --- |
| CC[C@H](C)[C@H](NC(=O)[C@H](CC(C)C)NC(=O)[C@H](Cc1c[nH]cn1)NC(=O)[C@H](Cc1c[nH]cn1)NC(=O)[C@H](CC(C)C)NC(=O)[C@H](Cc1ccccc1)NC(=O)[C@H](Cc1ccccc1)NC(=O)[C@H](CCCNC(=N)N)NC(=O)[C@H](CCCNC(=N)N)NC(=O)[C@H](CCCNC(=N)N)NC(=O)[C@H](CC(C)C)NC(=O)[C@@H]1CC(=O)NCCCC[C@H](NC(=O)[C@@H](Cc2c[nH]c3ccccc23)NC(=O)[C@H](CC(C)C)NC(=O)[C@H](CC(=O)O)NC(C)=O)C(=O)N[C@@H](CO)C(=O)N[C@@H]([C@@H](C)CC)C(=O)N[C@@H](CCC(N)=O)C(=O)N1)C(=O)N[C@@H](C)C(=O)N[C@@H](CCC(=O)O)C(=O)N[C@H](C(=O)N[C@@H](Cc1c[nH]cn1)C(=O)N[C@H](C(=O)N[C@@H](C)C(N)=O)[C@@H](C)O)[C@@H](C)CC | 3.6 ± 0.8 |
| CC[C@H](C)[C@H](NC(=O)[C@H](CC(C)C)NC(=O)[C@H](Cc1c[nH]cn1)NC(=O)[C@H](Cc1c[nH]cn1)NC(=O)[C@H](CC(C)C)NC(=O)[C@H](Cc1ccccc1)NC(=O)[C@H](Cc1ccccc1)NC(=O)[C@H](CCCNC(=N)N)NC(=O)[C@H](CCCNC(=N)N)NC(=O)[C@H](CCCNC(=N)N)NC(=O)[C@H](CC(C)C)NC(=O)[C@@H]1CC(=O)NCCCC[C@H](NC(=O)[C@@H](Cc2c[nH]c3ccccc23)NC(=O)[C@H](CC(C)C)NC(=O)[C@H](CC(=O)O)NC(=O)[C@H](Cc2c[nH]cn2)NC(=O)[C@H](CC(C)C)NC(=O)[C@@H](N)CC(C)C)C(=O)N[C@@H](CO)C(=O)N[C@@H]([C@@H](C)CC)C(=O)N[C@@H](CCC(N)=O)C(=O)N1)C(=O)N[C@@H](C)C(=O)N[C@@H](CCC(=O)O)C(=O)N[C@H](C(=O)N[C@@H](Cc1c[nH]cn1)C(=O)N[C@H](C(=O)N[C@@H](C)C(N)=O)[C@@H](C)O)[C@@H](C)CC | 3.2 ± 1 |
